The values that follow come from ChEMBL document CHEMBL4007399, “Discovery and Synthesis of a Phosphoramidate Prodrug of a Pyrrolo[2,1-f][triazin-4-amino] Adenine C-Nucleoside (GS-5734) for the Treatment of Ebola and Emerging Viruses” (J Med Chem, 2017).

Some results are limits rather than exact numbers.

In data set [1] the test system is Ebolavirus. Description: Antiviral activity against GFP-fused Ebolavirus infected in TERT-immortalized HMVEC assessed as reduction in viral replication preincubated with cells followed by viral infection measured after 3 to 4 days by fluorescence assay. It is filed as functional. The settings on record: Orthoebolavirus, HMVEC.
Data set [2] in a line: Cytotoxicity against human HuH7 cells assessed as reduction in cell viability after 3 days by calcein-AM dye based fluorescence assay. The settings on record: Huh-7 cells. Also noted: species or system Huh-7.
Data set [3] deals with Human orthopneumovirus. The data set can be described thus: Antiviral activity against Respiratory syncytial virus A2 infected in human Hep2 cells assessed as reduction of virus-induced cytopathic effect after 4 days by Cell-Titer Glo assay. The settings on record: human respiratory syncytial virus, A2, HEp-2, 96 h. It is filed as functional, cell-based. In general terms: Protection from cytopathic effect is a common read-out in antiviral testing.

Data set [4] is described as follows: Cytotoxicity against human Hep2 cells assessed as reduction in cell viability after 4 to 5 days by Cell-Titer Glo assay. Particulars: HEp-2 cells. It is filed as cell-based, HEp-2.
Data set [5] can be described thus: Cytotoxicity against human MT4 cells assessed as reduction in cell viability after 4 to 5 days by Cell-Titer Glo assay. It is filed as cell-based. Particulars: MT4 cells.
Data set [6] has as its system Ebolavirus. The data set can be described thus: Antiviral activity against Ebolavirus Kikwit infected in human HeLa cells assessed as reduction in viral glycoprotein levels preincubated with cells for 2 hrs followed by viral infection measured after 48 hrs by immunostaining based assay. The class given is functional, cell-based. Particulars: Orthoebolavirus, Kikwit, HeLa.

Data set [7] has as its system Hepatitis C virus. Description: Antiviral activity against Hepatitis C virus genotype 1b infected in human HuH7 cells preincubated with cells for 3 days followed by viral infection by luciferase assay. Particulars: Hepatitis C virus, genotype 1b, Huh-7. The class given is functional, cell-based, Hepacivirus hominis.
Data set [8] relates to Ebolavirus. Description: Antiviral activity against Ebolavirus Kikwit infected in human macrophages preincubated with cells for 2 hrs followed by viral infection measured after 48 hrs. The settings on record: Orthoebolavirus, Kikwit. The class given is functional.
Data set [9] is described as follows: Lipophilicity, log D of the compound after 30 mins by HPLC/UV method. The class given is physicochemical.
Data set [10] in a line: Half life in human plasma at 2 uM by LC/MS/MS analysis. The class given is ADME, cell-free.

By EC50 is commonly meant the concentration giving half of the maximal effect. As usually defined, the CC50 is the concentration that lowers cell viability or growth by half. For the molecule `CCC(CC)COC(=O)[C@H](C)NP(=O)(OC[C@H]1O[C@@](C#N)(c2ccc3c(N)ncnn23)[C@](C)(O)[C@@H]1O)Oc1ccccc1` (stereo partly drawn), the EC50 in data set [1] is 13 µM; in [3] it was more than 50 µM; in data set [6], 27 µM; in [7], 0.37 µM. For the same molecule, the CC50 at 72 h in data set [2] is more than 44 µM. Moreover, the figures for the CC50 in data set [4] and in data set [5] were more than 50 µM and 1.4 µM, respectively.
Regarding `Nc1ncnn2c([C@@H]3O[C@H](CO)[C@@H](O)[C@H]3O)ccc12`, the CC50 at 72 h in data set [2] is 0.15 µM. Further, the CC50 in data set [4] was 0.038 µM; in data set [5] it was less than 0.01 µM. It took 0.0035 µM to reach a half-maximal effect in data set [7] (EC50).
Consider `C#C[C@@]1(c2ccc3c(N)ncnn23)O[C@H](CO)[C@@H](O)[C@H]1O`, for which the CC50 at 72 h in data set [2] was more than 88 µM. Besides, the half-maximal effective concentration (EC50) in data set [3] is more than 200 µM; in data set [7], more than 88 µM. For the same molecule, the CC50 in data set [4] is more than 200 µM; in [5], 120 µM.
One may read the logD as lipophilicity at a set pH, counting ionised and neutral species. On to `N#C[C@@]1(c2ccc3c(N)ncnn23)O[C@H](CO)[C@@H](O)[C@H]1O` [GS-441524], for which the concentration giving a half-maximal response (EC50) in [8] was more than 20000 nM; in data set [1], 0.78 µM; in data set [3], 0.53 µM; in data set [6], more than 20 µM. In data set [2], the CC50 at 72 h is more than 88 µM. This molecule also showed a logD at 0.5 h in [9] of 0.3. For the same molecule, the values for the CC50 in data set [4] and in data set [5] were more than 100 µM and more than 57 µM, respectively.
One may read the half-life as how long it takes for the measured level to halve. A higher half-life goes with slow decline. As to `CCOC(=O)[C@@H](NP(=O)(OC[C@H]1O[C@@](C#N)(c2ccc3c(N)ncnn23)[C@H](O)[C@@H]1O)Oc1ccccc1)C(C)C` (stereo partly drawn), the EC50 in [1] was 3.15 µM; in data set [6], 7.04 µM. In data set [9], this molecule gave a logD at 0.5 h of 1.2. The CC50 in data set [5] was more than 100 µM. The molecule also displayed a half-life at 2 µM in data set [10] of 1580 min.
Taken in the same sequence, the figures for `C[C@H](NP(=O)(OC[C@H]1O[C@@](C#N)(c2ccc3c(N)ncnn23)[C@H](O)[C@@H]1O)Oc1ccccc1)C(=O)OC(C)(C)C` (stereo partly drawn) were 3.79 µM, 30.4 µM, 1.3, more than 100 µM and 1580 min.
Turning to `CCOC(=O)[C@H](Cc1ccccc1)NP(=O)(OC[C@H]1O[C@@](C#N)(c2ccc3c(N)ncnn23)[C@H](O)[C@@H]1O)Oc1ccccc1` (stereo partly drawn), the 50% effective concentration (EC50) in data set [8] amounted to 270 nM; in [1], 0.587 µM; in [6] it was 4.38 µM. This molecule also registered a log distribution coefficient (logD) at 0.5 h in data set [9] of 1.6. The 50% cytotoxic concentration (CC50) in data set [5] was found to be 15 µM. In addition, the half-life at 2 µM in data set [10] was 1580 min.
As to `N#C[C@@]1(n2ccc(N)nc2=O)O[C@H](CO)[C@@H](O)[C@H]1O`, the concentration for a half-maximal effect (EC50) was more than 10 µM in [1], 7.3 µM in data set [3], more than 50 µM in data set [6] and 12 µM in data set [7]. In data set [2], the CC50 at 72 h was more than 44 µM. Moreover, the CC50 in data set [4] is more than 100 µM; in data set [5], more than 57 µM.
For the molecule `C[C@H](NP(=O)(OC[C@H]1O[C@@](C#N)(c2ccc3c(N)ncnn23)[C@H](O)[C@@H]1O)Oc1ccccc1)C(=O)OC1CCC1` (stereo partly drawn), the values for the EC50 in [1] and in [6] were 0.088 µM and 0.42 µM, respectively. The molecule further showed a log distribution coefficient (logD) at 0.5 h in data set [9] of 1.1. Also, in data set [5], the CC50 is 6 µM. For the same molecule, the half-life at 2 µM in [10] was 815 min.
Consider `N#C[C@@]1(n2cnc3c(N)ncnc32)O[C@H](CO)[C@@H](O)[C@H]1O`, for which the concentration giving a half-maximal response (EC50) is 56 µM in data set [1], more than 100 µM in data set [3] and more than 44 µM in [7]. Also, the half-maximal cytotoxic concentration (CC50) at 72 h in [2] was more than 88 µM. The 50% cytotoxic concentration (CC50) was more than 100 µM in data set [4] and more than 53 µM in [5].
With `N#C[C@@]1(c2ccc3c(N)ncnn23)O[C@H](CO)[C@@H](O)[C@H]1F`, the CC50 at 72 h in data set [2] is more than 44 µM. Besides, the half-maximal effective concentration (EC50) is more than 100 µM in data set [3] and more than 44 µM in data set [7]. In [5], the CC50 came to 32 µM.
As for `C[C@H](NP(=O)(OC[C@H]1O[C@@](C#N)(c2ccc3c(N)ncnn23)[C@H](O)[C@@H]1O)Oc1ccccc1)C(=O)OC1CCCC1` (stereo partly drawn), the 50% effective concentration (EC50) in data set [8] was determined as 120 nM; in [1] it was 0.16 µM; in data set [6], 0.633 µM. The same molecule returned a logD at 0.5 h in data set [9] of 1.3. In addition, in [5], the cytotoxic concentration (CC50) was found to be 8.8 µM. This molecule showed a half-life at 2 µM in data set [10] of 1580 min.
Turning to `C#C[C@@]1(c2ccc3c(N)ncnn23)O[C@H](COP(=O)(N[C@@H](C)C(=O)OCC(CC)CC)Oc2ccccc2)[C@@H](O)[C@H]1O` (stereo partly drawn), the results for the EC50 in [1], in data set [3] and in data set [7] were 3.9 µM, 1.1 µM and 6.9 µM, respectively. In addition, in data set [2], the 50% cytotoxic concentration (CC50) at 72 h is more than 44 µM. Further, the CC50 in data set [4] was more than 100 µM; in [5] it was more than 32 µM.
With `CCOC(=O)[C@H](C)NP(=O)(N[C@@H](C)C(=O)OCC)OC[C@H]1O[C@@](C#N)(c2ccc3c(N)ncnn23)[C@H](O)[C@@H]1O`, the 50% effective concentration (EC50) worked out at 9.1 µM in data set [1] and 20.4 µM in data set [6]. The molecule also came in with a log distribution coefficient (logD) at 0.5 h in [9] of less than 0.3. Moreover, the CC50 in data set [5] is more than 53 µM.
Regarding `CCC(CC)OC(=O)[C@H](C)NP(=O)(OC[C@H]1O[C@@](C#N)(c2ccc3c(N)ncnn23)[C@H](O)[C@@H]1O)Oc1ccccc1` (stereo partly drawn), the EC50 was 0.845 µM in data set [1] and 1.81 µM in data set [6]. The molecule further gave a log distribution coefficient (logD) at 0.5 h in [9] of 1.6. For the same molecule, in data set [5], the CC50 was more than 100 µM. In [10], the half-life at 2 µM is 860 min.
For `CCOC(=O)[C@H](C)NP(=O)(OC[C@H]1O[C@@](C#N)(c2ccc3c(N)ncnn23)[C@H](O)[C@@H]1O)Oc1ccccc1` (stereo partly drawn), the concentration giving a half-maximal response (EC50) in data set [1] was found to be 0.636 µM; in [6], 2.43 µM. In data set [9], the pH-dependent lipophilicity (logD) at 0.5 h was 0.6. The CC50 in data set [5] was determined as 13 µM. This molecule also registered a half-life at 2 µM in data set [10] of 1580 min.
In the case of `CC(C)OC(=O)[C@H](C)NP(=O)(OC[C@H]1O[C@@](C#N)(n2ccc(N)nc2=O)[C@H](O)[C@@H]1O)Oc1ccccc1` (stereo partly drawn), the CC50 at 72 h in [2] was more than 44 µM. Further, the half-maximal effective concentration (EC50) in [3] is 63 µM; in data set [6], more than 20 µM; in [7], 2.5 µM. In addition, the 50% cytotoxic concentration (CC50) in data set [4] was more than 100 µM; in data set [5] it was 53 µM.
Regarding `C[C@H](N[P@](=O)(OC[C@H]1O[C@@](C#N)(c2ccc3c(N)ncnn23)[C@H](O)[C@@H]1O)Oc1ccccc1)C(=O)OCC(C)(C)C`, the EC50 in [1] turned out to be 0.092 µM; in data set [6], 0.168 µM. In data set [9], the logD at 0.5 h is 1.7. Besides, in data set [5], the CC50 was determined as 3 µM. In data set [10], this molecule yielded a half-life at 2 µM of 700 min.
Regarding `CC(C)OC(=O)[C@H](C)N[P@](=O)(OC[C@H]1O[C@@](C#N)(c2ccc3c(N)ncnn23)[C@](C)(O)[C@@H]1OC(=O)C(C)C)Oc1ccccc1` [GS-6620], the EC50 was 40 µM in data set [1], more than 20 µM in [3], more than 20 µM in [6] and 0.31 µM in data set [7]. Moreover, in [2], the CC50 at 72 h is 51 µM. Further, the CC50 in [4] is 95 µM; in data set [5] it was 7.8 µM.
Regarding `C[C@@]1(O)[C@H](O)[C@@H](CO)O[C@@]1(C#N)c1ccc2c(N)ncnn12`, the EC50 in data set [1] was more than 10 µM; in [3] it was more than 100 µM; in data set [6], 50 µM; in data set [7], more than 44 µM. Moreover, the 50% cytotoxic concentration (CC50) at 72 h in [2] is more than 44 µM. In addition, the CC50 is more than 100 µM in data set [4] and more than 57 µM in data set [5].
Take `C[C@@]1(c2ccc3c(N)ncnn23)O[C@H](CO)[C@@H](O)[C@H]1O`: the EC50 in data set [1] was more than 10 µM; in [3] it was 5.5 µM; in data set [7], 38 µM. Also, in data set [2], the half-maximal cytotoxic concentration (CC50) at 72 h was 62 µM. Also, the values for the 50% cytotoxic concentration (CC50) in data set [4] and in data set [5] were 93 µM and 4.5 µM, respectively.
Consider `CCC(CC)COC(=O)[C@H](C)N[P@@](=O)(OC[C@H]1O[C@@](C#N)(c2ccc3c(N)ncnn23)[C@H](O)[C@@H]1O)Oc1ccccc1`, for which the 50% effective concentration (EC50) worked out at 111 nM in data set [8], 0.053 µM in data set [1] and 0.08 µM in [6]. The molecule further gave a logD at 0.5 h in [9] of 2.
